Assay results from patent US20160007597A1, “TREATING AGENT FOR PLANT CELL WALLS, SUBSTANCE DELIVERY METHOD USING TREATING AGENT, AND SUBSTANCE DELIVERY SYSTEM” (SUNTORY HOLDINGS LIMITED, priority 2013, published 2016).
Read-outs that look alike come from different tables or passages of the source.

Key:
[1] = system: onion epidermal cells; test: Cell wall permeability: intracellular uptake of GFP or GFP-FT in onion bulb epidermal cells after trypsin treatment (fluorescence microscopy); type: cell-based; details: 0.1 mg GFP, 20 μM R9 peptide
Description: Various test solutions containing a fluorescent protein, GFP or GFP-FT, and the R9 peptide were prepared and applied to onion bulbs for verification of GFP uptake. The ingredients of the test solutions verified are shown below:
salt (NaCl), acidic buffer (citric acid), organic solvent (toluene, ethanol), cell wall lyase (pectolyase), surfactant (saponin, Silwet L-77, Tween 20, Triton X-100, CHAPS, CTAB, SDS), chelator (EGTA, EDTA, CDTA, BAPTA), DMSO, and glycerol.
Onion bulbs were cut into boat-shaped pieces, and test solutions (100 μl each) prepared at various concentration conditions (0.1× PBS, 1 to 100 mM chelator, 0.005% to 0.05% surfactant, 0.1 mg GFP, 20 μM R9 peptide) were applied to their surface. Each sample was allowed to stand in a dish at room temperature for 12 hours while being kept under humid conditions. Then, the test solutions were removed and the samples were washed with distilled water. After a 0.25% trypsin solution was applied in 100 μl volumes, the samples were allowed to stand for 30 minutes. After removal of the trypsin solution, the samples were washed with distilled water and their epidermal cell layers were peeled to prepare specimens, which were then observed for intracellular uptake of GFP under a fluorescence microscope (Leica, DM6000B).

[2] = system: leaves
Description: To verify the migration of the FT protein applied to leaves, the shoot apex after application was sampled and analyzed by Western blotting in an attempt to detect the FT protein. To ensure long-term application to leaves, concentration studies were conducted for EDTA.

[3] = system: torenia bud cuttings (shoot apex); test: Migration of FT protein applied to leaves to the shoot apex, detected by Western blotting; type: in vivo; details: Condition 3: FT protein, 20 μM R9 peptide, 0.1× PBS, 1 mM EDTA, 0.005% Silwet L-77, applied to leaves twice; sampled one week after the first application
Description: Bud cuttings were prepared from torenia's branches each including the shoot apex. These branches were cut to an even length of approximately 10 cm containing three nodes or so, each of which was put into a 5 ml tube containing 4 ml of 0.1× PBS, followed by covering the mouth of each tube with a parafilm to avoid evaporation of PBS. Four bud cuttings were prepared for each test group, and test solutions (90 μl each) prepared under three conditions (Condition 1: 0.1× PBS, 1 mM EDTA, 0.005% Silwet L-77; Condition 2: 33 μg/ml FT protein, 0.1× PBS, 1 mM EDTA, 0.005% Silwet L-77; Condition 3: FT protein, 20 μM R9 peptide, 0.1× PBS, 1 mM EDTA, 0.005% Silwet L-77) were applied by being spread thinly over leaves at a position which was two nodes (about 3 cm) apart from the shoot apex. After air drying, these samples were maintained at 25° C. in a thermostatic incubator.
After 3 days, the test solutions were applied again, and after one week of the first application, the shoot apexes were sampled. Proteins were extracted from the shoot apex samples by the acetone method. 250 μl of an extraction buffer (10 mM Tris-HCl (pH 8.0), 0.1% CHAPS, 4.5 mM NaCl, 0.1 mM DTT, 0.2 mM EDTA, complete ULTRA1 tablets (Roche Diagnostics)) was added to each shoot apex sample obtained from 4 bud cuttings, followed by sufficient homogenization in a mixer together with zirconia beads of 4 mm diameter. […]

[4] = system: in vitro shoots of torenia; test: Induction of flower buds in in vitro shoots of torenia; type: in vivo; details: torenia in test tubes; 33 μg/ml FT protein, 20 μM R9 peptide, 0.1× PBS, 1 mM EDTA, 0.005% Silwet L-77; applied five times every 2 to 3 days
Description: (§1) In most cases, in vitro shoots of torenia will form no flower buds in test tubes. Likewise, in vitro shoots of petunia will form no flower buds under short-day conditions. In these in vitro shoots, the FT protein was applied to their leaf surface in an attempt to induce flower buds. To the shoot apex and leaf surface of torenia and petunia cultivated in test tubes, a test solution (33 μg/ml FT protein, 20 μM R9 peptide, 0.1× PBS, 1 mM EDTA, 0.005% Silwet L-77) was applied by being spread thinly to ensure a uniform distribution. Application was repeated five times every 2 to 3 days, and culture was also continued thereafter. As a result, flower buds were formed at around 40 days after application and eventually brought into flower in test tubes (FIG. 4).

[5] = system: in vitro shoots of petunia; test: Induction of flower buds in in vitro shoots of petunia; type: in vivo; details: petunia in test tubes; 33 μg/ml FT protein, 20 μM R9 peptide, 0.1× PBS, 1 mM EDTA, 0.005% Silwet L-77; applied five times every 2 to 3 days
Description: as §1

[6] = system: protoplasts of torenia; test: GFP uptake into torenia protoplasts in the presence of R9 peptide (fluorescence microscopy); type: cell-based; details: 0.1 mg GFP
Description: To verify that the R9 peptide was also evenly effective for plant cells other than cultured cells, protoplasts of torenia were used and observed for their uptake of green fluorescent protein (GFP) in the presence of the R9 peptide. Torenia leaves (0.5 g) were treated in an enzyme solution (1% Onozuka RS, 0.1% pectolyase Y-23, 0.45 M mannitol) at 30° C. for 2 hours to prepare protoplasts. The protoplasts were washed with 0.45 M mannitol and then divided into 50 μl aliquots, followed by centrifugation to prepare protoplasts. The protoplasts were each suspended in 50 μl of a buffer (0.45 M mannitol, 1× PBS, 0.1 mg GFP, (0, 20, 200 μM) R9 peptide) and observed for intracellular migration of GFP under a fluorescence microscope (FIG. 1).

[7] = combination of 1 to 50 mM EDTA or EGTA and 0.005% to 0.01% Silwet L-77 or Tween 20, 12 hours

O=C(O)CN(CCOCCOCCN(CC(=O)O)CC(=O)O)CC(=O)O [EGTA, O,O′-bis(2-aminoethyl)ethylene glycol-N,N,N′,N′-tetraacetic acid]
intracellular GFP fluorescence after trypsin treatment [1, 7]: granular GFP fluorescence was strongly observed

O=C(O)CN(CCN(CC(=O)O)CC(=O)O)CC(=O)O [EDTA, ethylenediaminetetraacetic acid]
damage to leaves ([2]; 1 mM EDTA): able to be used without any problems | damage to leaves ([2]; 100 mM EDTA): cause damage to leaves | intracellular GFP fluorescence after trypsin treatment [1, 7]: granular GFP fluorescence was strongly observed

polyoxyethylene sorbitan monolaurate [Tween 20]
intracellular GFP fluorescence after trypsin treatment [1, 7]: granular GFP fluorescence was strongly observed

FT protein: FLOWERING LOCUS T protein, promoter for flowering in whole plants (florigen)
FT protein signal in the shoot apex (Western blotting) [3]: FT protein signals were able to be detected in the shoot apex | time of flower bud formation after application [4]: around 40 days | time of flower bud formation after application [5]: around 40 days

R9 peptide: cell penetrating peptide composed of 9 arginine residues (RRRRRRRRR)
number of cells showing GFP uptake with increase in R9 peptide concentration ([6]; 0, 20, 200 μM R9 peptide): cells showing GFP uptake were confirmed to increase in number | GFP uptake into protoplasts ([6]; 200 μM R9 peptide, 0.45 M mannitol, 1× PBS): good GFP uptake was observed | intracellular GFP fluorescence after trypsin treatment ([1]; chelator-free and surfactant-free test solution, 12 hours at room temperature): no fluorescence was observed within the cells
